One data set addresses ITK (Homo sapiens (Human), UniProt Q08881). The experiment in a line: ITK kinase assay (radiometric filter assay). The following applies: 10 μM ATP; 10-dose IC50 mode, 3 fold serial dilution starting at 100 μM; read-out: ITK kinase inhibition. The class given is biochemical. Here is the method:
(§1) All additions were done on ice, followed by the addition of ATP mix. Wells were uniformly mixed using an Eppendorff plate shaker and incubated at 30° C. for 20 min, and stopped by the addition of 5 μL of 3% phosphoric acid. Volume was increased to 100 μL by adding 0.8% phosphoric acid which was then transferred to PC filter mats (Millipore), pre-equilibrated with 70% ethanol and water. Plates were washed thrice with 100 μL 0.8% phosphoric acid and dried for an hour at 60° C. 100 μL scintillation fluid was added into each well and reading taken in Perkin Elmer TOPCOUNT beta counter.
(§2) The reactions were carried out at 10 μM ATP for ITK, JAK3 and other TEC and Janus family of kinase.

Another data set addresses JAK3 (Homo sapiens (Human), UniProt P52333). The experiment in a line: JAK3 kinase assay (radiometric filter assay). Format: biochemical. The following applies: 10 μM ATP; 10-dose IC50 mode, 3 fold serial dilution starting at 100 μM; read-out: JAK3 kinase inhibition. How it is done:
as §1, §2

Data set [1] has as its system Established Type II Collagen Arthritis. The experiment in a line: Established type II collagen arthritis, PO BID, 11 day. The source says:
Effects of 1H-pyrrolo[2,3-b]pyridine series of compounds Administered PO, BID in 11 Day DBA/1OlaHsd Mouse Established Type II Collagen Arthritis

Chain of JAK3 (P52333 whole entry): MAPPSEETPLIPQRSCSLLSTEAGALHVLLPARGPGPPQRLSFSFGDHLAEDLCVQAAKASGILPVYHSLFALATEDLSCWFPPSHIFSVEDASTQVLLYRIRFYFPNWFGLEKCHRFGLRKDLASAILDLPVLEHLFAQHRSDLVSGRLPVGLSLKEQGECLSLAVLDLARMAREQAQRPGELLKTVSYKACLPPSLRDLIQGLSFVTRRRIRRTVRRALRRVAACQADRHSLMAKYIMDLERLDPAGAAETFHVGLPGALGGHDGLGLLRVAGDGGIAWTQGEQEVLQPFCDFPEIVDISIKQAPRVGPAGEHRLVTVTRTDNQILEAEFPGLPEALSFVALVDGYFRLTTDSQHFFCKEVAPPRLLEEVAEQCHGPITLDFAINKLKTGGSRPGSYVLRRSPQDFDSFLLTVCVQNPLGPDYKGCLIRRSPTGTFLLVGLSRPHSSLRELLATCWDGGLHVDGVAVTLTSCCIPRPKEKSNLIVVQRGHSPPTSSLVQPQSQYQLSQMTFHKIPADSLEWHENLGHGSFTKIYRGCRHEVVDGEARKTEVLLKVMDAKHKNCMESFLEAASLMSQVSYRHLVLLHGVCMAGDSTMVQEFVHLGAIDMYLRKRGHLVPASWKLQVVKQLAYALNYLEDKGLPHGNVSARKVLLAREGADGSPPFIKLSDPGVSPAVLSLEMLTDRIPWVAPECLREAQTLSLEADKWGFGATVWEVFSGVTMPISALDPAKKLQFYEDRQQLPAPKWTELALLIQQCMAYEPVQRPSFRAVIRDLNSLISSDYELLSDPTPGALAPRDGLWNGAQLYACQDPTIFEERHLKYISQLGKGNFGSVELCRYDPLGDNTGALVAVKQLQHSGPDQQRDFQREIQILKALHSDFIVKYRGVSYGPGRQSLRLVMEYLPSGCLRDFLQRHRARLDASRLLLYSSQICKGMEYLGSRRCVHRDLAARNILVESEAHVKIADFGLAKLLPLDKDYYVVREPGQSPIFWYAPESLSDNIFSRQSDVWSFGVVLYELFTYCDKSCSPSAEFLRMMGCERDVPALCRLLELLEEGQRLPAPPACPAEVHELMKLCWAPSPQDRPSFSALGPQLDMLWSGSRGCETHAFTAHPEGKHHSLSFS
Chain of ITK (Q08881 whole entry): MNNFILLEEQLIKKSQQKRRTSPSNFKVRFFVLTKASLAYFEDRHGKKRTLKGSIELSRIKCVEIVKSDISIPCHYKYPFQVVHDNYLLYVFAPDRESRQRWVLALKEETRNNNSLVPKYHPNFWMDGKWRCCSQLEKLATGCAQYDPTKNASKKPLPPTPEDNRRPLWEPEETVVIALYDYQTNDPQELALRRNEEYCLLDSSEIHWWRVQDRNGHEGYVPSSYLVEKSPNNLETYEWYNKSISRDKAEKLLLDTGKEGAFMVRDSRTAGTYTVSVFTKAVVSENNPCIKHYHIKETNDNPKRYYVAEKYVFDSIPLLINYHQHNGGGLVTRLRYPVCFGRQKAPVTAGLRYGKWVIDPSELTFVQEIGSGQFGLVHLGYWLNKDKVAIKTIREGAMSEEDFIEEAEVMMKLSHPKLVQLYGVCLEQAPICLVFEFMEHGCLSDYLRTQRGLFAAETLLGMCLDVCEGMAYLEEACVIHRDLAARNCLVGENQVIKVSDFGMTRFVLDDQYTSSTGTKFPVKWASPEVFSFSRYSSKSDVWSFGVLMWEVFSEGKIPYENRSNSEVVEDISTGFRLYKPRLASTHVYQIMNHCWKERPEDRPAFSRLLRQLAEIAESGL

As for `C=CC(=O)Nc1cccc(-c2cnc3[nH]cc(NS(=O)(=O)CCC)c3c2)c1` [Example 97, N-(3-(3-(propylsulfonamido)-1H-pyrrolo[2,3-b]pyridin-5-yl)phenyl)acrylamide], the IC50 at ITK and at JAK3 was above 100 nM throughout.

Consider `C[C@@H]1CCN(C(=O)CC#N)C[C@@H]1N(C)c1ncnc2[nH]ccc12` [CP-690550/Tofacitinib, Tofacitinib], for which the body weight entry in data set [1] (60 mg/Kg) is recorded as “body weight change from day 1”. Besides, the “effectiveness, suppression of the inflammatory response” value in data set [1] (collagen-induced arthritis in mice, PO BID) is reported as 97%.

As to `CCC#CC(=O)Nc1cc(-c2cnc3[nH]cc(C)c3c2)ccc1F` [Example 31, N-(2-fluoro-5-(3-methyl-1H-pyrrolo[2,3-b]pyridin-5-yl)phenyl)pent-2-ynamide], the IC50 at ITK and on JAK3 was below 100 nM in each case.
